This note sets out measurements from US20240150340A1, “CDK Inhibitors And Their Use As Pharmaceuticals” (Prelude Therapeutics Incorporated, priority 2022, published 2024).

Structures are written as SMILES.

One experiment has as its system OVCAR3 p-RB. The experiment in a line: pRB ICW Assay in OVCAR3 Cells. The conditions noted are these: Homo sapiens, OVCAR-3, incubated with compound for 2 hours. Format: cell-based. The method, then: pRB ICW Assay in OVCAR3 Cells
OVCAR3 cells were maintained in RPMI (Corning, Catalog #: 10-040-CV) supplemented with 10% v/v FBS (Gibco, Catalog #: 26140-079), 1% v/v Penicillin Streptomycin (Gibco, Catalog #15140-122.) OVCAR3 cells grown at log phase were trypsinized, counted, and resuspended in fresh medium to reach a final density of 6.7e4 cells/mL and 75 μL of culture were dispensed into a 384-well plate (Falcon, cat #353962) using a Multidrop Combi dispenser (Thermo Scientific). The next day, compounds were dispensed as a 9-point, ½ log serial dilution using a Tecan digital dispenser (D300e), and cells were incubated with compound for 2 hours in a humidified incubator at 37° C. A reference compound at a final concentration of 10 μM was used as a control for maximum inhibition. Each compound was tested in duplicate for each experiment. At the end of the incubation, […] (Electron Microscopy, cat #15710) was slowly added to each well and the plate was incubated at room temperature (RT) for 30 minutes to fix cells. Cells were then permeabilized by incubating with 50 μL/well of wash buffer (1×PBS with 0.1% Triton X-100) 5×5 minutes, followed by 1 hour blocking with 30 μL/well of Odyssey blocking buffer (Li-COR, cat #927-40000), at RT. Anti-phosphor RB antibody (Cell signaling 8516S) was diluted 1:1000 in Odyssey blocking buffer and 20 μL was added to all wells and incubated overnight in 4° C. with gently rocking. The next day, cells were washed 5×5 min with 50 μL/well of wash buffer, followed with 1 hour incubation with secondary antibody and DRAQ5 diluted in Odyssey blocking buffer (1:500 dilution for secondary antibody and 1:2000 dilution for DRAQ5), 5×5 min washes, and one last wash with water. Plates were dried in 37° C. oven for 5 minutes and scanned using Li-COR Odyssey CLx imaging system to acquire intensities at 700 and 800 nm channels.

The next experiment deals with T1, CDK2/Cyclin E2 (Homo sapiens, UniProt P24941).
T1 construct: Recombinant protein complex CDK2/Cyclin E2, expressed from insect cell, was purchased from ProQinase
The experiment in a line: CDK2/CyclinE2 Enzymatic Activity Assay (TR-FRET). The class given is biochemical. The conditions noted are these: ATP 1 mM final, read-out: CDK2_E1 IC50. The method, then:
CDK2/CyclinE2 Enzymatic Activity Assay
The inhibitory activity of compounds was evaluated in vitro using TR-FRET assay with white 384-well low volume microplate (Greiner Bio-One). CDK2/Cyclin E2 catalyzed phosphorylation of peptide in the presence and absence of compounds was measured and used in IC50 determination. Recombinant protein complex CDK2/Cyclin E2, expressed from insect cell, was purchased from ProQinase. Testing compounds were dissolved in DMSO at 1 mM and tested in 9-dose IC50 mode. The reaction mixture was prepared by mixing CDK2/CyclinE2 (1 nM final), ULight-4E-BP1 (50 nM final, Perkinelmer, TRF0128-D), and ATP (1 mM final) in assay buffer (20 mM of HEPES pH 7.4, 1 mM of EGTA, 0.05% BSA, 0.005% Tween 20, and 1 mM TCEP). The compound of interest in DMSO was added to each well in 3-fold serial dilution by dispenser (TECAN D300E) to make a 9.9 μL of reaction mixture. After 20 minutes preincubation at room temperature, 0.1 μL MgCl2 (10 mM final) was added to initiate the reaction. Following a 45 minute incubation at 37° C., the reaction was stopped by addition of 2 μL of quenching buffer consisting of Lance detection buffer (Perkinelmer CR97-100C), LANCE Ultra Europium-anti-P-4E-BP1 (Perkinelmer, TRF0216-D), EDTA, and incubated at room temperature for additional 60 minutes in the dark. The reaction signal was measured by Envision multimode plate reader (PerkinElmer, 2102-0010). IC50 values were determined by fitting the data to the standard 4 parameters with Hill Slope using GraphPad Prism software.

`C[C@@H]1CN(S(=O)(=O)N(C)C)CC[C@@H]1Nc1ncc(C(F)(F)F)c(-c2ncc(CC(C)(C)O)s2)n1` [Example 149, (3R,4S)-4-((4-(5-(2-hydroxy-2-methylpropyl)thiazol-2-yl)-5-(trifluoromethyl)pyrimidin-2-yl)amino)-N,N,3-trimethylpiperidine-1-sulfonamide]: the half-maximal inhibitory concentration (IC50) in the experiment on OVCAR3 p-RB was > 500 nM; at CDK2/Cyclin E2, ≤ 100 nM.
Taken in the same sequence, the figures for `CC(C)(O)c1cnc(-c2nc(N[C@@H]3CCN(S(C)(=O)=O)C[C@H]3F)ncc2C(F)(F)F)s1` [Example 97, 2-(2-(2-(((3R,4R)-3-fluoro-1-(methylsulfonyl)piperidin-4-yl)amino)-5-(trifluoromethyl)pyrimidin-4-yl)thiazol-5-yl)propan-2-ol] were ≤ 100 nM and ≤ 100 nM.
The matching figures for `Cn1cnc(S(=O)(=O)N2CCC(Nc3ncc(C(F)(F)F)c(-c4ncc(C(C)(C)O)s4)n3)CC2)c1` [Example 98, 2-(2-(2-((1-((1-methyl-1H-imidazol-4-yl)sulfonyl)piperidin-4-yl)amino)-5-(trifluoromethyl)pyrimidin-4-yl)thiazol-5-yl)propan-2-ol]: ≤ 100 nM and ≤ 100 nM.
Turning to `C[C@@H]1CN(S(C)(=O)=O)CC[C@@H]1Nc1ncc(C(F)(F)F)c(-c2ncc(C(O)C(F)(F)F)s2)n1` (stereo partly drawn) [Example 140, 2,2,2-trifluoro-1-(2-(2-(((3R,4S)-3-methyl-1-(methylsulfonyl)piperidin-4-yl)amino)-5-(trifluoromethyl)pyrimidin-4-yl)thiazol-5-yl)ethan-1-ol], the IC50 in the experiment on OVCAR3 p-RB is > 500 nM; at CDK2/Cyclin E2 it was ≤ 100 nM.
The matching figures for `Cn1cc(S(=O)(=O)N2CC[C@@H](Nc3ncc(C(F)(F)F)c(-c4ncc(C(C)(C)O)s4)n3)[C@H](F)C2)cn1` [Example 101, 2-(2-(2-(((3R,4R)-3-fluoro-1-((1-methyl-1H-pyrazol-4-yl)sulfonyl)piperidin-4-yl)amino)-5-(trifluoromethyl)pyrimidin-4-yl)thiazol-5-yl)propan-2-ol]: ≤ 100 nM and ≤ 100 nM.
The matching figures for `C[C@@H]1CN(S(C)(=O)=O)CC[C@@H]1Nc1ncc(C(F)(F)F)c(-c2ncc(C(O)C(F)F)s2)n1` (stereo partly drawn) [Example 146, 2,2-difluoro-1-(2-(2-(((3R,4S)-3-methyl-1-(methylsulfonyl)piperidin-4-yl)amino)-5-(trifluoromethyl)pyrimidin-4-yl)thiazol-5-yl)ethan-1-ol]: 100 to 500 nM and ≤ 100 nM.
With `CS(=O)(=O)N1CCC(Nc2ncc(C(F)(F)F)c(-c3ncc(C(O)C(F)F)s3)n2)CC1` (centres unmarked) [Example 134, 2,2-difluoro-1-(2-(2-((1-(methylsulfonyl)piperidin-4-yl)amino)-5-(trifluoromethyl)pyrimidin-4-yl)thiazol-5-yl)ethan-1-ol], the IC50 in the experiment with OVCAR3 p-RB and on CDK2/Cyclin E2 was ≤ 100 nM in each case.
With `C[C@@H]1CN(S(C)(=O)=O)CC[C@@H]1Nc1ncc(C(F)(F)F)c(-c2ncc(C(O)CF)s2)n1` (stereo partly drawn) [Example 145, 2-fluoro-1-(2-(2-(((3R,4S)-3-methyl-1-(methylsulfonyl)piperidin-4-yl)amino)-5-(trifluoromethyl)pyrimidin-4-yl)thiazol-5-yl)ethan-1-ol], the IC50 in the experiment on OVCAR3 p-RB is > 500 nM; at CDK2/Cyclin E2, ≤ 100 nM.
Taken in the same sequence, the figures for `C[C@@H]1CN(S(=O)(=O)N2CCN(C)CC2)CC[C@@H]1Nc1ncc(C(F)(F)F)c(-c2ncc(CC(C)(C)O)s2)n1` [Example 148, 2-methyl-1-(2-(2-(((3R,4S)-3-methyl-1-((4-methylpiperazin-1-yl)sulfonyl)piperidin-4-yl)amino)-5-(trifluoromethyl)pyrimidin-4-yl)thiazol-5-yl)propan-2-ol] were > 500 nM and ≤ 100 nM.
Taken in the same sequence, the figures for `Cn1cc(S(=O)(=O)N2CC[C@@H](Nc3ncc(C(F)(F)F)c(-c4cc(C#N)c(CC(C)(C)O)s4)n3)[C@H](F)C2)cn1` [Example 126, 5-(2-(((3R,4R)-3-fluoro-1-((1-methyl-1H-pyrazol-4-yl)sulfonyl)piperidin-4-yl)amino)-5-(trifluoromethyl)pyrimidin-4-yl)-2-(2-hydroxy-2-methylpropyl)thiophene-3-carbonitrile] were ≤ 100 nM and ≤ 100 nM.
The matching figures for `CC(C)(O)Cc1cnc(-c2nc(N[C@@H]3CCN(S(C)(=O)=O)C[C@H]3F)ncc2C(F)(F)F)s1` [Example 135, 1-(2-(2-(((3R,4R)-3-fluoro-1-(methylsulfonyl)piperidin-4-yl)amino)-5-(trifluoromethyl)pyrimidin-4-yl)thiazol-5-yl)-2-methylpropan-2-ol]: 100 to 500 nM and ≤ 100 nM.
Regarding `CS(=O)(=O)N1CCC(Nc2ncc(C(F)(F)F)c(-c3ncc(C4(O)CCC4)s3)n2)CC1` [Example 106, 1-(2-(2-((1-(methylsulfonyl)piperidin-4-yl)amino)-5-(trifluoromethyl)pyrimidin-4-yl)thiazol-5-yl)cyclobutan-1-ol], the IC50 in the experiment on OVCAR3 p-RB was 100 to 500 nM; on CDK2/Cyclin E2, ≤ 100 nM.
Regarding `Cn1cc(S(=O)(=O)N2CC[C@@H](Nc3ncc(C(F)(F)F)c(-c4cc(C(N)=O)ns4)n3)[C@H](F)C2)cn1` [Example 128, 5-(2-(((3R,4R)-3-fluoro-1-((1-methyl-1H-pyrazol-4-yl)sulfonyl)piperidin-4-yl)amino)-5-(trifluoromethyl)pyrimidin-4-yl)isothiazole-3-carboxamide], the IC50 in the experiment with OVCAR3 p-RB and at CDK2/Cyclin E2 was ≤ 100 nM each time.
In the case of `C[C@@H]1CN(S(=O)(=O)c2cnn(C)c2)CC[C@@H]1Nc1ncc(C(F)(F)F)c(-c2ncc(CC(C)(C)O)s2)n1` [Example 111, 2-methyl-1-(2-(2-(((3R,4S)-3-methyl-1-((1-methyl-1H-pyrazol-4-yl)sulfonyl)piperidin-4-yl)amino)-5-(trifluoromethyl)pyrimidin-4-yl)thiazol-5-yl)propan-2-ol], the concentration for half-maximal inhibition (IC50) with OVCAR3 p-RB and on CDK2/Cyclin E2 was ≤ 100 nM throughout.
Regarding `Cn1cnc(S(=O)(=O)N2CC[C@H](Nc3ncc(C(F)(F)F)c(-c4ncc(CC(C)(C)O)s4)n3)[C@H](F)C2)c1` [Example 136, 1-(2-(2-(((3R,4S)-3-fluoro-1-((1-methyl-1H-imidazol-4-yl)sulfonyl)piperidin-4-yl)amino)-5-(trifluoromethyl)pyrimidin-4-yl)thiazol-5-yl)-2-methylpropan-2-ol], the IC50 with OVCAR3 p-RB and at CDK2/Cyclin E2 was ≤ 100 nM throughout.
For the molecule `Cn1cc(S(=O)(=O)N2CCC(Nc3ncc(C(F)(F)F)c(-c4ncc(C(C)(C)O)s4)n3)CC2)cn1` [Example 99, 2-(2-(2-((1-((1-methyl-1H-pyrazol-4-yl)sulfonyl)piperidin-4-yl)amino)-5-(trifluoromethyl)pyrimidin-4-yl)thiazol-5-yl)propan-2-ol], the IC50 with OVCAR3 p-RB was 100 to 500 nM; on CDK2/Cyclin E2 it was ≤ 100 nM.
Taken in the same sequence, the figures for `CC(O)c1cnc(-c2nc(NC3CCN(S(C)(=O)=O)CC3)ncc2C(F)(F)F)s1` (centres unmarked) [Example 112, 1-(2-(2-((1-(methylsulfonyl)piperidin-4-yl)amino)-5-(trifluoromethyl)pyrimidin-4-yl)thiazol-5-yl)ethan-1-ol] were ≤ 100 nM and ≤ 100 nM.
With `Cc1cnc(N[C@H]2CCN(S(C)(=O)=O)C[C@H]2F)nc1-c1ncc(CC(C)(C)O)s1` [Example 155, 1-(2-(2-(((3R,4S)-3-fluoro-1-(methylsulfonyl)piperidin-4-yl)amino)-5-methylpyrimidin-4-yl)thiazol-5-yl)-2-methylpropan-2-ol], the IC50 in the experiment on OVCAR3 p-RB was ≤ 100 nM.

One may read the IC50 as the concentration that inhibits the measured activity by half.
